{"source": "patent US8410106B2", "about": "“Hydrazine-substituted anthranilic acid derivatives” (Bayer Cropscience AG, priority 2010, dated 2013)", "key": {"[1]": {"test": "logP determination by HPLC on reversed-phase columns (C 18), EEC Directive 79/831 Annex V.A8", "type": "physicochemical"}, "[2]": {"tested_on": "greenhouse red spidermite (Tetranychus urticae)", "test": "Tetranychus test, OP-resistant (TETRUR spray treatment)", "type": "in vivo", "details": "after 6 days, bean leaf discs", "protocol": "(§1) After 6 days the activity is determined, in %."}, "[3]": {"tested_on": "larvae of the mustard beetle (Phaedon cochleariae)", "test": "Phaedon test (PHAECO spray treatment)", "details": "in Brassica rapa, foliar, 168 h, read-out: activity (beetle larvae killed)"}, "[4]": {"tested_on": "caterpillars of the army worm (Spodoptera frugiperda)", "test": "Spodoptera frugiperda test (SPODFR spray treatment)", "type": "in vivo", "details": "foliar, 168 h, read-out: activity (caterpillars killed)"}, "[5]": {"tested_on": "green peach aphid (Myzus persicae)", "test": "Myzus test (MYZUPE spray treatment)", "type": "in vivo", "details": "foliar, 144 h, read-out: activity (aphids killed)", "protocol": "as §1"}, "[6]": {"details": "HPLC, reversed-phase C 18, table value without method mark, read-out: logP"}, "[7]": {"details": "application rate 100 g/ha, after 7 days, maize leaf discs, spray"}, "[8]": {"details": "application rate 100 g/ha, after 6 days, Chinese cabbage leaf discs, spray"}}, "note": "Like-named read-outs stand apart in the source and are kept apart here."}
{"smiles": "COC(=O)N(C)NC(=O)c1cc(Cl)cc(C)c1NC(=O)c1cc(Cn2nnc(C(F)(F)F)n2)nn1-c1ncccc1C#N", "note": "[Example 59]", "values": [{"measurement": "chromatographic logP", "setting": "[1]; [6]", "result": 2.73}, {"measurement": "activity (mites killed)", "setting": "[2]; application rate 100 g/ha", "result": 100, "unit": "%"}, {"measurement": "pest or weed control at 100 g/ha", "setting": "[3]", "result": 100, "unit": "%"}, {"measurement": "pest or weed control at 100 g/ha", "setting": "[4]; [7]", "result": 100, "unit": "%"}]}
{"smiles": "COC(=O)N(C)NC(=O)c1cc(Cl)cc(Cl)c1NC(=O)c1cc(Cn2nc(OC)n(C)c2=O)nn1-c1ncccc1Cl", "note": "[Example 67]", "values": [{"measurement": "chromatographic logP", "setting": "[1]", "result": 1.9}, {"measurement": "activity (mites killed)", "setting": "[2]; application rate 500 g/ha", "result": 100, "unit": "%"}]}
{"smiles": "COC(=O)N(C)NC(=O)c1cc(F)cc(C)c1NC(=O)c1cc(Cn2nnc(C(F)F)n2)nn1-c1ncccc1Cl", "note": "[Example 75]", "values": [{"measurement": "chromatographic logP", "setting": "[1]", "result": 2.19}, {"measurement": "pest or weed control at 100 g/ha", "setting": "[3]", "result": 100, "unit": "%"}, {"measurement": "pest or weed control at 100 g/ha", "setting": "[4]; in Zea mays", "result": 100, "unit": "%"}, {"measurement": "pest or weed control at 100 g/ha", "setting": "[5]; in Brassica rapa", "result": 100, "unit": "%"}]}
{"smiles": "COC(=O)N(C)N(C)C(=O)c1cc(C#N)cc(C)c1NC(=O)c1cc(Cn2nnc(C(F)(C(F)(F)F)C(F)(F)F)n2)nn1-c1ncccc1Cl", "note": "[Example 79]", "values": [{"measurement": "chromatographic logP", "setting": "[1]; [6]", "result": 3.66}, {"measurement": "pest or weed control at 100 g/ha", "setting": "[3]", "result": 100, "unit": "%"}, {"measurement": "pest or weed control at 100 g/ha", "setting": "[4]; [7]", "result": 100, "unit": "%"}, {"measurement": "pest or weed control at 100 g/ha", "setting": "[5]; [8]", "result": 100, "unit": "%"}]}
{"smiles": "COC(=O)N(C)NC(=O)c1cc(I)cc(C)c1NC(=O)c1cc(Cn2nnc(C(F)(F)C(F)(F)C(F)(F)F)n2)nn1-c1ncccc1Cl", "note": "[Example 81]", "values": [{"measurement": "chromatographic logP", "setting": "[1]; [6]", "result": 3.85}, {"measurement": "pest or weed control at 100 g/ha", "setting": "[3]", "result": 100, "unit": "%"}, {"measurement": "pest or weed control at 100 g/ha", "setting": "[4]; in Zea mays", "result": 100, "unit": "%"}, {"measurement": "pest or weed control at 100 g/ha", "setting": "[5]; in Brassica rapa", "result": 80, "unit": "%"}]}
{"smiles": "COC(=O)N(C)N(C)C(=O)c1cc(C#N)cc(C)c1NC(=O)c1cc(Cn2nnc(C(F)(F)C(F)(F)C(F)(F)F)n2)nn1-c1ncccc1Cl", "note": "[Example 82]", "values": [{"measurement": "chromatographic logP", "setting": "[1]; [6]", "result": 3.67}, {"measurement": "pest or weed control at 100 g/ha", "setting": "[3]", "result": 100, "unit": "%"}, {"measurement": "pest or weed control at 100 g/ha", "setting": "[4]; in Zea mays", "result": 100, "unit": "%"}, {"measurement": "pest or weed control at 100 g/ha", "setting": "[5]; in Brassica rapa", "result": 100, "unit": "%"}]}
{"smiles": "COC(=O)N(C)NC(=O)c1cc(Cl)cc(C)c1NC(=O)c1cc(Cn2nnc(C(F)(F)F)n2)nn1-c1ccccc1Cl", "note": "[Example 85]", "values": [{"measurement": "chromatographic logP", "setting": "[1]; [6]", "result": 3.34}, {"measurement": "pest or weed control at 100 g/ha", "setting": "[3]", "result": 100, "unit": "%"}, {"measurement": "pest or weed control at 100 g/ha", "setting": "[4]; [7]", "result": 100, "unit": "%"}, {"measurement": "pest or weed control at 100 g/ha", "setting": "[5]; [8]", "result": 100, "unit": "%"}]}
